In patent US9556179B2 (BRISTOL-MYERS SQUIBB COMPANY, priority 2012, dated 2017):
pIC50: −log10 of the molar value.

Key:
CK1δ = CK1δ (Homo sapiens (Human), UniProt P48730); assay: CK1δ kinase assay (Caliper LABCHIP electrophoretic separation of fluoresceinated peptide substrate and product); format: biochemical; details: 200 pM enzyme, 50 μM ATP, 22 hours at room temperature
Outline: (§1)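 Eleven-concentration compound series in kinase reactions run for 22 hours at room temperature. Terminated with EDTA, with product conversion read by electrophoretic separation. Non-linear regression gave IC50.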

CK1ε = CK1ε (Homo sapiens (Human), UniProt P49674); assay: CK1ε kinase assay (Caliper LABCHIP electrophoretic separation of fluoresceinated peptide substrate and product); format: biochemical; details: 200 pM enzyme, 50 μM ATP, 22 hours at room temperature
Outline: as §1

CK1ε, sequence (P49674 whole entry): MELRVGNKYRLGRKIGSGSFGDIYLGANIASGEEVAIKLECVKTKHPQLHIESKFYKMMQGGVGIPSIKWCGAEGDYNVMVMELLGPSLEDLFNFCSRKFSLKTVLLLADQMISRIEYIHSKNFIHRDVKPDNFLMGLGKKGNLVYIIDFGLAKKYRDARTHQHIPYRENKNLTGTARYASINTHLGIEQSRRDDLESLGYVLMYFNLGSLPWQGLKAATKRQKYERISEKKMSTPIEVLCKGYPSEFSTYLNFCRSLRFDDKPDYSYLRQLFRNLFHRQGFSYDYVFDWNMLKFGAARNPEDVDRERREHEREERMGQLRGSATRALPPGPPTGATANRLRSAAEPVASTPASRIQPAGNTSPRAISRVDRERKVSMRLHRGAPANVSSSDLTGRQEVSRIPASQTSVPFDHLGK
CK1δ, sequence (P48730 whole entry): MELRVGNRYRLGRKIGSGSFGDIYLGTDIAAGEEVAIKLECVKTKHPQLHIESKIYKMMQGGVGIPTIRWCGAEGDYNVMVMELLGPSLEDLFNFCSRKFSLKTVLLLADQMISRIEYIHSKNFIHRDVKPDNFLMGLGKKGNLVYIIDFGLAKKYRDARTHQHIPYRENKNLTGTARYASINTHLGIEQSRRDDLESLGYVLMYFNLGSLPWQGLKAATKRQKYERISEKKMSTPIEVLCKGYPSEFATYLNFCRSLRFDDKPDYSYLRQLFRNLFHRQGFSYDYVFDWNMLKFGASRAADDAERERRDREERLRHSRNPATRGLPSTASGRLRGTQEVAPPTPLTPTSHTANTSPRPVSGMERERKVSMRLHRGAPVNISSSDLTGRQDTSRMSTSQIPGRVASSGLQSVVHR

pIC50 (CK1δ) | pIC50 (CK1ε) | Compound
9.18 | 8.39 | Cc1n[nH]cc1C(=O)Nc1cn2nc(-c3c(-c4ccc(F)cc4)nc(C)n3C)ccc2n1 [Compound 377, N-(6-(4-(4-fluorophenyl)-1,2-dimethyl-1H-imidazol-5-yl)imidazo[1,2-b]pyridazin-2-yl)-3-methyl-1H-pyrazole-4-carboxamide]
8.21 | 7.22 | Cc1nc(-c2ccc(F)cc2)c(-c2ccc3nc(NC(=O)c4cnoc4)cn3n2)n1C [Compound 378, N-(6-(4-(4-fluorophenyl)-1,2-dimethyl-1H-imidazol-5-yl)imidazo[1,2-b]pyridazin-2-yl)-4-isoxazolecarboxamide]
9.24 | 8.31 | Cc1cc(C(=O)Nc2cn3nc(-c4c(-c5ccc(F)cc5)nc(C)n4C)ccc3n2)on1 [Compound 379, N-(6-(4-(4-fluorophenyl)-1,2-dimethyl-1H-imidazol-5-yl)imidazo[1,2-b]pyridazin-2-yl)-3-methyl-5-isoxazole-carboxamide]
8.28 | 7.44 | Cc1nc(-c2ccc(F)cc2)c(-c2ccc3nc(NC(=O)c4cnc[nH]4)cn3n2)n1C [Compound 380, N-(6-(4-(4-fluorophenyl)-1,2-dimethyl-1H-imidazol-5-yl)imidazo[1,2-b]pyridazin-2-yl)-1H-imidazole-5-carboxamide]
9.12 | 8.43 | Cc1c(C(=O)Nc2cn3nc(-c4c(-c5ccc(F)cc5)nc(C)n4C)ccc3n2)cnn1C [Compound 381, N-(6-(4-(4-fluorophenyl)-1,2-dimethyl-1H-imidazol-5-yl)imidazo[1,2-b]pyridazin-2-yl)-1,5-dimethyl-1H-pyrazole-4-carboxamide]
7.66 | 6.99 | Cc1cc(C(=O)Nc2cn3nc(-c4c(-c5ccc(F)cc5)nc(C)n4C)ccc3n2)on1 [Compound 382, N-(6-(4-(4-fluorophenyl)-1,2-dimethyl-1H-imidazol-5-yl)imidazo[1,2-b]pyridazin-2-yl)-3-methyl-5-isoxazole-carboxamide]
8.20 | 7.76 | Cc1nc(-c2ccc(F)cc2)c(-c2ccc3nc(NC(=O)c4ncccn4)cn3n2)n1C [Compound 383, N-(6-(4-(4-fluorophenyl)-1,2-dimethyl-1H-imidazol-5-yl)imidazo[1,2-b]pyridazin-2-yl)pyrimidine-2-carboxamide]
8.07 | 7.54 | Cc1nc(-c2ccc(F)cc2)c(-c2ccc3nc(NC(=O)c4ccncn4)cn3n2)n1C [Compound 384, N-(6-(4-(4-fluorophenyl)-1,2-dimethyl-1H-imidazol-5-yl)imidazo[1,2-b]pyridazin-2-yl)pyrimidine-4-carboxamide]
7.98 | 7.26 | Cc1nc(-c2ccc(F)cc2)c(-c2ccc3nc(NC(=O)c4cccnn4)cn3n2)n1C [Compound 386, N-(6-(4-(4-fluorophenyl)-1,2-dimethyl-1H-imidazol-5-yl)imidazo[1,2-b]pyridazin-2-yl)pyridazine-3-carboxamide]
8.15 | 7.71 | Cc1nc(-c2ccc(F)cc2)c(-c2ccc3nc(NC(=O)c4cnccn4)cn3n2)n1C [Compound 388, N-(6-(4-(4-fluorophenyl)-1,2-dimethyl-1H-imidazol-5-yl)imidazo[1,2-b]pyridazin-2-yl)pyrazine-2-carboxamide]
7.45 | 6.57 | Cc1nc(-c2ccc(F)cc2)c(-c2ccc3nc(NC(=O)c4cc(-c5ccc(F)cc5)ncn4)cn3n2)n1C [Compound 389]
8.14 | 7.49 | Cc1nc(-c2ccc(F)cc2)c(-c2ccc3nc(NC(=O)c4cnc(-c5ccncc5)s4)cn3n2)n1C [Compound 390, N-(6-(4-(4-fluorophenyl)-1,2-dimethyl-1H-imidazol-5-yl)imidazo[1,2-b]pyridazin-2-yl)-2-(pyridin-4-yl)thiazole-5-carboxamide]
8.35 | 7.98 | Cc1nc(-c2ccc(F)cc2)c(-c2ccc3nc(NC(=O)c4ccnnc4)cn3n2)n1C [Compound 391, N-(6-(4-(4-fluorophenyl)-1,2-dimethyl-1H-imidazol-5-yl)imidazo[1,2-b]pyridazin-2-yl)pyridazine-4-carboxamide]
7.78 | 7.26 | Cc1nc(-c2ccc(F)cc2)c(-c2ccc3nc(NC(=O)c4ccccc4CN(C)C)cn3n2)n1C [Compound 392, 2-((dimthylamino)methyl)-N-(6-(4-(4-fluorophenyl)-1,2-dimethyl-1H-imidazol-5-yl)imidazo[1,2-b]pyridazin-2-yl)benzamide]
8.17 | 7.82 | Cc1nc(-c2ccc(F)cc2)c(-c2ccc3nc(NC(=O)c4cccc(CN5CCCC5)c4)cn3n2)n1C [Compound 394, N-(6-(4-(4-fluorophenyl)-1,2-dimethyl-1H-imidazol-5-yl)imidazo[1,2-b]pyridazin-2-yl)-3-(pyrrolidin-1-ylmethyl) benzamide]
8.26 | 7.97 | Cc1nc(-c2ccc(F)cc2)c(-c2ccc3nc(NC(=O)c4ccc(CN5CCCC5)cc4)cn3n2)n1C [Compound 395, N-(6-(4-(4-fluorophenyl)-1,2-dimethyl-1H-imidazol-5-yl)imidazo[1,2-b]pyridazin-2-yl)-4-(pyrrolidin-1-ylmethyl) benzamide]
8.41 | 8.36 | Cc1nc(-c2ccc(F)cc2)c(-c2ccc3nc(NC(=O)c4cncs4)cn3n2)n1C [Compound 396, N-(6-(4-(4-fluorophenyl)-1,2-dimethyl-1H-imidazol-5-yl)imidazo[1,2-b]pyridazin-2-yl)thiazole-5-carboxamide]
8.56 | 8.18 | Cc1nc(-c2ccc(F)cc2)c(-c2ccc3nc(NC(=O)c4ccncc4F)cn3n2)n1C [Compound 397, 3-fluoro-N-(6-(4-(4-fluoro-phenyl)-1,2-dimethyl-1H-imidazol-5-yl)imidazo[1,2-b]pyridazin-2-yl)isonicotin-amide]
9.18 | 8.57 | Cc1nc(-c2ccc(F)cc2)c(-c2ccc3nc(NC(=O)c4ccc(Cl)cc4F)cn3n2)n1C [Compound 398, 4-chloro-2-fluoro-N-(6-(4-(4-fluorophenyl)-1,2-dimethyl-1H-imidazol-5-yl)imidazo[1,2-b]pyridazin-2-yl) benzamide]
8.67 | 8.28 | Cc1nc(-c2ccc(F)cc2)c(-c2ccc3nc(NC(=O)c4ccccc4F)cn3n2)n1C [Compound 399, 2-fluoro-N-(6-(4-(4-fluoro-phenyl)-1,2-dimethyl-1H-imidazol-5-yl)imidazo[1,2-b]pyridazin-2-yl)benzamide]
8.17 | 7.63 | Cc1nc(-c2ccc(F)cc2)c(-c2ccc3nc(NC(=O)c4cc(C(C)(C)C)ncn4)cn3n2)n1C [Compound 400, 6-(tert-butyl)-N-(6-(4-(4-fluorophenyl)-1,2-dimethyl-1H-imidazol-5-yl)imidazo[1,2-b]pyridazin-2-yl) pyrimidine-4-carboxamide]
9.33 | 8.13 | Cc1cc(C)c(-c2cccnc2)cc1C(=O)Nc1cn2nc(-c3c(-c4ccc(F)cc4)nc(C)n3C)ccc2n1 [Compound 402, N-(6-(4-(4-Fluorophenyl)-1,2-dimethyl-1H-imidazol-5-yl)imidazo[1,2-b]pyridazin-2-yl)-2,4-dimethyl-5-(pyridin-3-yl)benzamide]
